Where a SMILES comes first, the peptide text is derived from it.
These compounds were tested against T1, KcsA-Kv1.1 T+F chimera (Streptomyces lividans, UniProt P0A334, R52A/G53E/A54E/P55A/G56E/A57S/Q58H/L59F/I60S/T61S/Y62I/R64D/L81M) (assay: Phage ELISA-binding assay, KcsA-Kv1.1 T+F). Conditions: toxin displayed on M13 phage; Fig. 8D.
T1 sequence (P0A334 1-160 R52A/G53E/A54E/P55A/G56E/A57S/Q58H/L59F/I60S/T61S/Y62I/R64D/L81M): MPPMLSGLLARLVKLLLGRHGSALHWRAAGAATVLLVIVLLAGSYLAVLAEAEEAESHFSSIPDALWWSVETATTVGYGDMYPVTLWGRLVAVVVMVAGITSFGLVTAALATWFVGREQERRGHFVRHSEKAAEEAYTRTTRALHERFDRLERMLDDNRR
Design: species or system human Kv1.1 turret and filter in Streptomyces lividans KcsA
Description: Phage display test solutions were prepared according to routine phage display protocols ([62]). Phosphorylated and annealed oligonucleotides encoding the peptide construct were ligated into linearized pAS62 phagemid vector (https://patents.google.com/patent/WO2022144560A1/en) at a vector/insert ratio of 1:3. The final phagemid construct harbored a signal sequence followed by the peptide of interest, a linker sequence ([…]), and the C-terminal part of the P3 coat protein (amino acids: 216-424 of NP_510891.1). Chemically competent XL1-Blue E. coli cells (2022249, Agilent) were transformed with the ligation product and then streaked onto ampicillin (100 μg/ml) containing LB/Amp plates and incubated for 16 h at 37 °C. A few clones were sequenced, and a single colony with confirmed target sequence was inoculated into 3 ml 2 YT medium supplemented with 100 μg/ml ampicillin and incubated at 37 °C until the culture reached midlog phase. The culture was infected with M13KO7 helper phage (N0315S, New England Biolabs) (phage/cell ratio 10:1) and was incubated for 30 min at 37 °C. The 3 ml culture was transferred into 200 ml 2YT medium, supplemented with 100 μg/ml ampicillin and 25 μg/ml kanamycin, and incubated overnight at 37 °C. The overnight cell culture (200 ml) was pelleted by centrifugation at 8000g for 10 min in 400 ml centrifuge tubes at 4 °C. […] The particle concentrations of phage solutions were determined using a NanoDrop One C (Thermo Fisher Scientific) spectrophotometer. The phage particle concentration was assessed according to the formula: (A268–A320) × 5 × 10^12 particles/ml ([62]). […]
Phage stock solutions were diluted to working concentration with phage resuspension buffer supplemented with 2 mM DDM. […] Following blocking, the wells were washed 4× with washing buffer (300 μl TBS-Tween, 0.1% v/v) using a Wellwash Versa microplate washer (Thermo Fisher Scientific); then 50 μl phage solution (in TBS-BSA-Tween, 0.1% v/v, 2 mM DDM) at determined phage concentration was added to the wells and incubated for 1 h at room temperature on a horizontal shaker. […]
`CC[C@H](C)[C@H](NC(=O)[C@H](CCC(=O)O)NC(=O)[C@@H](NC(=O)CN)C(C)C)C(=O)N[C@@H](CC(N)=O)C(=O)N[C@H](C(=O)N[C@@H](CCCCN)C(=O)N[C@H]1CSSC[C@@H]2NC(=O)[C@H](CCCCN)NC(=O)CNC(=O)[C@H](Cc3ccccc3)NC(=O)[C@H](CCCNC(=N)N)NC(=O)[C@H](CCSC)NC(=O)CNC(=O)[C@H](C)NC(=O)[C@H](CC(=O)O)NC(=O)[C@H](CCCCN)NC(=O)[C@@H]3CSSC[C@@H](C(=O)N[C@H](C(=O)N4CCC[C@H]4C(=O)N[C@@H](CCCCN)C(=O)O)[C@@H](C)O)NC(=O)[C@H](Cc4c[nH]cn4)NC(=O)[C@H](CSSC[C@H](NC(=O)[C@H](CCC(N)=O)NC(=O)[C@@H]4CCCN4C(=O)[C@H](CO)NC(=O)CNC(=O)[C@H](CO)NC1=O)C(=O)N[C@@H](CC(C)C)C(=O)N[C@@H](CCCCN)C(=O)N1CCC[C@H]1C(=O)N3)NC(=O)[C@H](CCCCN)NC(=O)[C@H](CCCNC(=N)N)NC(=O)[C@H](CC(N)=O)NC(=O)[C@H](CCSC)NC2=O)C(C)C` [KTX1, Kaliotoxin-1] was tested, and the “phage binding to KcsA-Kv1.1 T+F, in words” value (“phage binding” for short) was “ShK > KTX1”.
In the case of `CC[C@H](C)[C@@H]1NC(=O)[C@@H]2CSSC[C@H](NC(=O)[C@H](CO)NC(=O)[C@@H](N)C(C)C)C(=O)N[C@@H]([C@@H](C)O)C(=O)NCC(=O)N[C@@H](CO)C(=O)N[C@@H](CCCCN)C(=O)N[C@@H](CC(=O)O)C(=O)N[C@@H](CSSC[C@@H](C(=O)N[C@@H](CCCCN)C(=O)N[C@H]3CSSC[C@@H](C(N)=O)NC(=O)CNC(=O)[C@H](Cc4ccc(O)cc4)NC3=O)NC(=O)[C@H](CO)NC(=O)[C@H](CCCCN)NC(=O)[C@H](CC(N)=O)NC1=O)C(=O)N[C@@H](Cc1ccc(O)cc1)C(=O)N[C@@H](C)C(=O)N1CCC[C@H]1C(=O)N[C@H]1CSSC[C@H](NC(=O)CNC(=O)[C@H]([C@@H](C)O)NC(=O)[C@H](CCC(N)=O)NC(=O)[C@H](CCCCN)NC(=O)[C@H](CCCNC(=N)N)NC1=O)C(=O)N1CCC[C@H]1C(=O)N[C@@H](CC(N)=O)C(=O)N[C@@H](C)C(=O)N[C@@H](CCCCN)C(=O)N2` [MTX, Maurotoxin] (HELM PEPTIDE1{V.S.C.T.G.S.K.D.C.Y.A.P.C.R.K.Q.T.G.C.P.N.A.K.C.I.N.K.S.C.K.C.Y.G.C.[am]}$PEPTIDE1,PEPTIDE1,3:R3-24:R3|PEPTIDE1,PEPTIDE1,9:R3-29:R3|PEPTIDE1,PEPTIDE1,13:R3-19:R3|PEPTIDE1,PEPTIDE1,31:R3-34:R3$$$V2.0; N-terminus and C-terminus assumed), the “phage binding” value is reported as “negligible binding”.
In the case of `CC[C@H](C)[C@@H]1NC(=O)[C@@H](NC(=O)[C@H](CO)NC(=O)[C@@H](N)CCCNC(=N)N)CSSC[C@@H](C(=O)O)NC(=O)[C@H]([C@@H](C)O)NC(=O)CNC(=O)[C@@H]2CSSC[C@@H]3NC(=O)[C@H](CCC(N)=O)NC(=O)[C@H](Cc4ccccc4)NC(=O)[C@H](C)NC(=O)[C@H]([C@@H](C)O)NC(=O)[C@H](CSSC[C@H](NC(=O)[C@H](Cc4ccccc4)NC(=O)[C@H](CO)NC(=O)[C@H](CC(C)C)NC(=O)[C@H](CCCNC(=N)N)NC(=O)[C@H](Cc4ccc(O)cc4)NC(=O)[C@H](CCCCN)NC(=O)[C@H](CCSC)NC(=O)[C@H](CO)NC(=O)[C@H](Cc4c[nH]cn4)NC(=O)[C@H](CCCCN)NC3=O)C(=O)N[C@@H](CCCNC(=N)N)C(=O)N[C@@H](CCCCN)C(=O)N[C@@H]([C@@H](C)O)C(=O)N2)NC(=O)[C@H](CCCNC(=N)N)NC(=O)[C@H](CO)NC(=O)[C@H](CCCCN)NC(=O)[C@@H]2CCCN2C(=O)[C@H]([C@@H](C)CC)NC(=O)[C@H]([C@@H](C)O)NC(=O)[C@H](CC(=O)O)NC1=O` [ShK, Stichodactyla toxin], the “phage binding” value is reported as “ShK > KTX1”.

Source: PMC11002876, “KcsA-Kv1.x chimeras with complete ligand-binding sites provide improved predictivity for screening selective Kv1.x blockers” (The Journal of Biological Chemistry, 2024)
